Test results published in paper PMC6465774 (Frontiers in Pharmacology, 2019).
Counter-ions that a name gives are not always drawn.

Legend:
[1] = test system: gastric emptying in weight-matched control rats; conditions: 0.1 mg/kg s.c. 30 min before methylcellulose, weight-matched control animals, n = 7
Method: After 20 min the rats were sacrificed and the stomachs were removed after clamping the pylorus and cardia. […] Gastric emptying (%) was calculated as follows: [1 – (absorbance of sample / maximal absorbance)] × 100. Maximal absorbance was measured by processing the test meal alone, as described above.
In a separate experiment, weight match animals were treated either with saline, or with clonidine (0.1 mg/kg), an alpha2 adrenoceptor agonist and well-known inhibitor of gastric emptying, subcutaneously 30 min before the methylcellulose administration.

[2] = test system: STZ treated diabetic rats with allodynia; conditions: rat, in vivo
[3] = test system: STZ treated diabetic and weight matched non-diabetic rats (paw pressure withdrawal threshold); conditions: rat, in vivo
respiratory functions = conditions: dose of 253 nmol/kg; ref our previous work; cited from earlier work
STZ treated animals = test system: STZ treated animals; set-up: method as in Yamamoto et al., 2009; conditions: doses up to 10 mg/kg (approximately 31 μmol/kg), 7 weeks following STZ treatment; ref Yamamoto et al., 2009; cited from earlier work
MOR = molecular target: T1, MOR (Rattus norvegicus, UniProt P33535); assay: [3H]DAMGO saturation binding in dorsal spinal cord membranes
T1 construct: incubating 50–100 μg of membrane protein of lumbar dorsal horn with 0.1- 4 nM; from tissue; host or cells: rat lumbar (L3-5) dorsal spinal cord / dorsal horn membranes, diabetic and control rats

[4] = test system: STZ treated neuropathic rats; assay: Antagonist effect of co-administered NAL-M on the antiallodynic effect of s.c. opioids (DPA); type: in vivo, rat

T1 sequence (P33535 whole entry): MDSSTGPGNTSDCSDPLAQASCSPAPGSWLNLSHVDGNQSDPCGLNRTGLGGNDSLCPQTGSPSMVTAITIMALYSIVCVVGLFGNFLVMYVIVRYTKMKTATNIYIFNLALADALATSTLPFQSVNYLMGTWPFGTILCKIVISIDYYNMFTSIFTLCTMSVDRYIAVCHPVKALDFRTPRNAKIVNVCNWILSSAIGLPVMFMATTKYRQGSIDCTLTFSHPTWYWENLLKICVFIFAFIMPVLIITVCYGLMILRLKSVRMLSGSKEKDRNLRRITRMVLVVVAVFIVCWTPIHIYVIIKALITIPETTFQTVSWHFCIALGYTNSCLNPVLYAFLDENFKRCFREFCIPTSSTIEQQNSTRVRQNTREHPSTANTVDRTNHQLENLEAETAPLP

Row | Structure (SMILES) | antiallodynic effect at 12th week of diabetes at the lowest antiallodynic dose [2] | lowest dose that significantly attenuated the allodynia (lowest antiallodynic dose) ([2]; sc) [nmol/kg] | ED30 (effective dose producing 30% effect), diabetic animals ([3]; sc) [nmol/kg] | ED30 (effective dose producing 30% effect), non-diabetic animals ([3]; sc) [nmol/kg] | dose inducing significant antinociceptive action in naïve (weight matched) rats ([3]; sc) [nmol/kg] | time of peak antinociceptive effect ([3]; sc) [min] | other results
1 | Clc1cccc(Cl)c1N=C1NCCN1 [clonidine, clonidine-hydrochloride] | – | – | – | – | – | – | gastric emptying [1]: 55 ± 2%
2 | CO[C@@]12C=C[C@H](OS(=O)(=O)O)[C@@H]3Oc4c(O)ccc5c4[C@@]31CCN(C)[C@@H]2C5 [14-O-MeM6SU, 14-O-methylmorphine-6-O-sulfate] | produced antiallodynic effects | 253 | 434 | 335 | 506 | 60 | antiallodynic action in diabetic rats, all tested doses ([2]; sc): significantly ameliorated the allodynia; times higher potency than morphine in diabetic conditions based on ED30 values [3]: 48 times; antinociceptive action in naïve rats at 253 nmol/kg ([3]; sc): failed to show any significant antinociceptive action; respiratory depression (respiratory functions): no respiratory depression
3 | CN1CC[C@]23c4c5ccc(O)c4O[C@H]2[C@@H](O)C=C[C@H]3[C@H]1C5 [Morphine, morphine hydrochloride] | produced antiallodynic effects | 40000 | 20692 | 6589 | ≥ 2500 | 30 | ED30diabetic/ED30non-diabetic [3]: 7; effectiveness of morphine in doses up to 10 mg/kg (STZ treated animals): ineffectiveness
4 | C[C@@H](NC(=O)[C@@H](N)Cc1ccc(O)cc1)C(=O)NCC(=O)N(C)[C@@H](Cc1ccccc1)C(=O)NCCO [DAMGO, Tyr-D-Ala-Gly-(NMe)Phe-Gly-ol] | – | – | – | – | – | – | Bmax of [3H]DAMGO binding, controls (MOR; dorsal horn of control rats): 23.55 ± 4.36 fmol/mg; Bmax of [3H]DAMGO binding, diabetic rats (MOR; dorsal horn of diabetic rats): 13.11 ± 1.85 fmol/mg
5 | C=CC[N+]1(C)CC[C@]23c4c5ccc(O)c4O[C@H]2C(=O)CC[C@@]3(O)[C@H]1C5 (some centres unmarked) [NAL-M, Naloxone methiodide] | – | – | – | – | – | – | effect of co-administered NAL-M on the antiallodynic action of 14-O-MeM6SU and morphine ([4]; NAL-M 10.6 μmol/kg s.c., co-administered with s.c. 14-O-MeM6SU or morphine): failed to alter the antiallodynic action; effect of NAL-M alone ([4]; NAL-M alone, n = 5, data not shown): no effect
